Assays:
GCT cell lines = experiment: XTT cell viability assay, GCT cell lines (pre-screen / summary); type: cell-based, Human; details: first pre-screen, XTT; read-out: EC50
Method: The […] (XTT) assays were performed as described previously. In summary, for GCT and fibroblast cell lines 5 × 10^3 cells (3 × 10^3 for UC, PCa and RCC cell lines) per 96-well were seeded and different drug concentrations (see Additional file 2: Fig. S2, Additional file 3: Fig. S3) or corresponding solvents were added to the cells the following day. For drug details see Additional file 12: Table S2 C. Each condition was analyzed in four technical replicates and EC50 values were calculated by GraphPad Prism v8.

CC (JAR) = experiment: Flow cytometry apoptosis (Annexin V/PI), CC; type: cell-based, Human; details: EC50, 16 h
Method: (§1) For Annexin V/PI staining, cells were washed with Annexin V Binding Buffer before being resuspended in 70 µl Annexin V Binding Buffer and 2.5 μl Annexin V FITC-conjugate (both Miltenyi Biotec, Bergisch Gladbach, Germany) and 15 µg PI (Sigma-Aldrich, Taufkirchen, Germany) and incubated in the dark at room temperature for 15 min. 500 µl of Annexin V Binding Buffer was added before measurement. For the cell cycle analysis, cells were washed with PBS (phosphate buffered saline), fixed by ice cold 70% ethanol and stained with 2 µg/ml PI and 200 µg/ml RNaseA (Quiagen, Hilden, Germany 100 mg/ml) in PBS shortly before every measurement. At least 5 × 10^4 cells were counted and analyzed using the MACSQuant software v 2.13.0.

YST (GCT72) = experiment: Flow cytometry apoptosis (Annexin V/PI), YST; type: cell-based, Human; details: EC50, 16 h
Method: as §1

2102EP-R = experiment: Flow cytometry apoptosis (Annexin V/PI), 2102EP-R; type: cell-based, Human; details: EC50, 16 h, compared to the parental cell line
GCT cells = experiment: Flow cytometry cell cycle (PI), GCT cells; type: cell-based, Human; details: EC50, 16 h
Method: as §1

[1] = test system: histone modifications in 2102EP cells; experiment: Mass spectrometry analysis of histone modifications (Mod Spec); type: cell-based, Human
Method: 2102EP cells were treated with the EC50 concentrations for Quisinostat, JIB-04, Chaetocin, MZ-1, LP99, PRT4165, GSK343 and DMSO as solvent control. The cells were harvested via trypsinization after 16 h. The mass spectrometric analysis of histone modifications was outsourced to the Mod Spec service by Active Motif (Carlsbad, CA, USA). Histone extraction and mass spectrometric analysis was performed as described previously. Raw data were transformed into z-scores as the input. The heatmap was generated in R using ‘pheatmap’ with default settings and provided by Active Motif.

[2] = test system: transcriptome of 2102EP cells; experiment: RNA sequencing; type: cell-based, Human; details: 16 h
Method: Transcriptome analysis has been performed as previously described at the core facility ‘Genomics & Transcriptomics’ (Prof. Dr. Karl Köhrer, Biomedical Research Center, Heinrich Heine University, Düsseldorf, Germany) and has been publicly shared via GEO (https://www.ncbi.nlm.nih.gov/geo/, GSE189472). RNA samples were quantified and measured as previously described. Statistical analyses were performed using the ‘Differential Expression in two groups’ tool (version 1.02) (Qiagen) and the resulting p values were corrected for multiple testing by false discovery rate (FDR). Accompanying PCA and heatmap were generated using Qlucore Omics Explorer 3.7 (Qlucore AB, Lund, Sweden). Values of solvent controls wereaveraged from the studies GSE189472, GSE190792 and GSE190022 [95].

[3] = test system: phosphorylated kinase targets in 2102EP cells; experiment: Proteome Profiler Human Phospho-Kinase Array; type: cell-based; details: 16 h
Method: For the detection of phosphorylated kinase targets, the Proteome Profiler Human Phospho-Kinase Array Kit (R&D Systems, Abingdon, UK) was used according to the manufacturer’s instructions. The ChemiDoc Imaging System (Bio-Rad Laboratories, Feldkirchen, Germany) was used for detection. 2102EP cells were harvested after 16 h of treatment with the epi-drugs. Pixel density was analyzed using Fiji ImageJ 1.53c.

fibroblast control cells = experiment: Flow cytometry apoptosis (Annexin V/PI), fibroblasts; type: cell-based, Human; details: EC50, 16 h
Method: as §1

[4] = 2102EP cells, Mod Spec raw data
[5] = sorted data log2>±1.5, FDR p<0.05

Question: Which results are given for `Cc1cc(=O)n(C)c2cc(N3C(=O)CC[C@H](NS(=O)(=O)CC(C)C)[C@H]3c3ccc(Cl)cc3)ccc12` [LP99]?
Answer: EC50 (GCT cell lines): ≤ 50 µM; apoptosis induction in JAR (CC (JAR)): negligible; apoptosis induction in GCT72 (YST (GCT72)): negligible; apoptosis induction in 2102EP-R (2102EP-R): did not induce apoptosis; cell cycle phase accumulation in GCT cells (GCT cells): accumulated in the G0/G1 phase; H1.4: K25AC, % of peptide pool [1, 4]: 0.009028%; H1.4: K25ME1, % of peptide pool [1, 4]: 2.269%; H1.4: K25ME2, % of peptide pool [1, 4]: 0.02267%; H1.4: K25ME3, % of peptide pool [1, 4]: 0.00557%; H1.4: K25UN, % of peptide pool [1, 4]: 97.6933%; H2A1: K13AC, % of peptide pool [1, 4]: 0.01093%; H2A1: K13UN, % of peptide pool [1, 4]: 99.9891%; H2A1: K15AC, % of peptide pool [1, 4]: 0.001748%; H2A1: K15UB, % of peptide pool [1, 4]: 0%; H2A1: K15UN, % of peptide pool [1, 4]: 99.9983%; H2A3: K13AC, % of peptide pool [1, 4]: 0.03196%; H2A3: K13UN, % of peptide pool [1, 4]: 99.968%; H2A3: K15AC, % of peptide pool [1, 4]: 0.03362%; H2A3: K15UB, % of peptide pool [1, 4]: 0%; H2A3: K15UN, % of peptide pool [1, 4]: 99.9664%; H2A: K5AC, % of peptide pool [1, 4]: 12.5375%; H2A: K5UN, % of peptide pool [1, 4]: 87.4625%; H2A: K9AC, % of peptide pool [1, 4]: 1.353%; H2A: K9UN, % of peptide pool [1, 4]: 98.6475%; H2A: K36AC, % of peptide pool [1, 4]: 0.0347%; H2A: K36UN, % of peptide pool [1, 4]: 99.9653%; H3: K9AC, % of peptide pool [1, 4]: 0.6876%; H3: K9ME1, % of peptide pool [1, 4]: 38.1257%; H3: K9ME2, % of peptide pool [1, 4]: 23.7135%; H3: K9ME3, % of peptide pool [1, 4]: 2.367%; H3: K9UN, % of peptide pool [1, 4]: 35.1066%; H3: K14AC, % of peptide pool [1, 4]: 29.2531%; H3: K14UN, % of peptide pool [1, 4]: 70.7469%; H3: K18AC, % of peptide pool [1, 4]: 10.1375%; H3: K18ME1, % of peptide pool [1, 4]: 0.2014%; H3: K18UN, % of peptide pool [1, 4]: 89.6611%; H3: K23AC, % of peptide pool [1, 4]: 16.6835%; H3: K23ME1, % of peptide pool [1, 4]: 0.02213%; H3: K23UN, % of peptide pool [1, 4]: 83.2943%; H3: K56AC, % of peptide pool [1, 4]: 0.1265%; H3: K56ME1, % of peptide pool [1, 4]: 0.3038%; H3: K56UN, % of peptide pool [1, 4]: 99.5697%; H3: K64AC, % of peptide pool [1, 4]: 0.01464%; H3: K64UN, % of peptide pool [1, 4]: 99.9854%; H3: K79AC, % of peptide pool [1, 4]: 0.6828%; H3: K79ME1, % of peptide pool [1, 4]: 14.7289%; H3: K79ME2, % of peptide pool [1, 4]: 6.113%; H3: K79ME3, % of peptide pool [1, 4]: 8.372%; H3: K79UN, % of peptide pool [1, 4]: 70.1029%; H3: K122AC, % of peptide pool [1, 4]: 0.1106%; H3: K122UN, % of peptide pool [1, 4]: 99.8894%; H3: Q19ME1, % of peptide pool [1, 4]: 0.008159%; H3: Q19UN, % of peptide pool [1, 4]: 99.9918%; H3: Q55ME1, % of peptide pool [1, 4]: 0.125%; H3: Q55UN, % of peptide pool [1, 4]: 99.875%; H3: R42ME2, % of peptide pool [1, 4]: 2.022%; H3: R42UN, % of peptide pool [1, 4]: 97.9783%; H3: R49ME2, % of peptide pool [1, 4]: 5.836%; H3: R49UN, % of peptide pool [1, 4]: 94.1642%; H3R2UN: K4AC, % of peptide pool [1, 4]: 0.0493%; H3R2UN: K4ME1, % of peptide pool [1, 4]: 17.3555%; H3R2UN: K4ME2, % of peptide pool [1, 4]: 0.1607%; H3R2UN: K4ME3, % of peptide pool [1, 4]: 0.06122%; H3R2UN: K4UN, % of peptide pool [1, 4]: 82.3733%; H3R2UN: Q5ME1, % of peptide pool [1, 4]: 0.0589%; H3R2UN: Q5UN, % of peptide pool [1, 4]: 99.9411%; H3.1: K27AC, % of peptide pool [1, 4]: 1.848%; H3.1: K27ME1, % of peptide pool [1, 4]: 50.2872%; H3.1: K27ME2, % of peptide pool [1, 4]: 19.0002%; H3.1: K27ME3, % of peptide pool [1, 4]: 2.587%; H3.1: K27UN, % of peptide pool [1, 4]: 26.2781%; H3.1: K36AC, % of peptide pool [1, 4]: 0.1934%; H3.1: K36ME1, % of peptide pool [1, 4]: 15.1441%; H3.1: K36ME2, % of peptide pool [1, 4]: 47.7578%; H3.1: K36ME3, % of peptide pool [1, 4]: 20.1942%; H3.1: K36UN, % of peptide pool [1, 4]: 16.7105%; H3.3: K27AC, % of peptide pool [1, 4]: 4.526%; H3.3: K27M, % of peptide pool [1, 4]: 0%; H3.3: K27ME1, % of peptide pool [1, 4]: 50.6483%; H3.3: K27ME2, % of peptide pool [1, 4]: 13.3962%; H3.3: K27ME3, % of peptide pool [1, 4]: 4.205%; H3.3: K27UN, % of peptide pool [1, 4]: 27.2241%; H3.3: K36AC, % of peptide pool [1, 4]: 1.988%; H3.3: K36ME1, % of peptide pool [1, 4]: 13.5047%; H3.3: K36ME2, % of peptide pool [1, 4]: 50.9616%; H3.3: K36ME3, % of peptide pool [1, 4]: 19.8606%; H3.3: K36UN, % of peptide pool [1, 4]: 13.6847%; H4: K5AC, % of peptide pool [1, 4]: 6.718%; H4: K5UN, % of peptide pool [1, 4]: 93.2819%; H4: K8AC, % of peptide pool [1, 4]: 9.0591%; H4: K8UN, % of peptide pool [1, 4]: 90.9409%; H4: K12AC, % of peptide pool ([1]; 2102EP cells, Mod Spec raw data, histone H4 K12 acetylated): 5.085 % of peptide pool; H4: K12UN, % of peptide pool ([1]; 2102EP cells, Mod Spec raw data, histone H4 K12 unmodified): 94.9152 % of peptide pool; H4: K16AC, % of peptide pool ([1]; 2102EP cells, Mod Spec raw data, histone H4 K16 acetylated): 42.3745 % of peptide pool; H4: K16UN, % of peptide pool ([1]; 2102EP cells, Mod Spec raw data, histone H4 K16 unmodified): 57.6255 % of peptide pool; H4: K20AC, % of peptide pool ([1]; 2102EP cells, Mod Spec raw data, histone H4 K20 acetylated): 21.754 % of peptide pool; H4: K20ME2, % of peptide pool ([1]; 2102EP cells, Mod Spec raw data, histone H4 K20 dimethylated): 43.6517 % of peptide pool; H4: K20ME1, % of peptide pool ([1]; 2102EP cells, Mod Spec raw data, histone H4 K20 monomethylated): 4.449 % of peptide pool; H4: K20ME3, % of peptide pool ([1]; 2102EP cells, Mod Spec raw data, histone H4 K20 trimethylated): 1.292 % of peptide pool; H4: K20UN, % of peptide pool ([1]; 2102EP cells, Mod Spec raw data, histone H4 K20 unmodified): 28.8535 % of peptide pool; change of histone modifications of the expected mode of action (Mod Spec) ([1]; 2102EP, EC50, 16 h, vs solvent control): general decrease in histone acetylation; GJD3 Log2 fold change vs. DMSO [2, 5]: 3.31; GLIPR1L1 Log2 fold change vs. DMSO [2, 5]: -3.59; GOLGA6A Log2 fold change vs. DMSO [2, 5]: -4.35; MTRNR2L8 Log2 fold change vs. DMSO [2, 5]: 3.16; NCKAP1L Log2 fold change vs. DMSO [2, 5]: -3.90; TAC1 Log2 fold change vs. DMSO [2, 5]: 3.33; A1BG Log2 fold change vs. DMSO ([2]; unsorted data): 0.41; A1CF Log2 fold change vs. DMSO ([2]; unsorted data): 1.13; A2M Log2 fold change vs. DMSO ([2]; unsorted data): -0.80; CREB, STAT3 and STAT5 phosphorylation and total levels of β-Catenin and HSP60 [3]: decreased; ERK1/2 phosphorylation [3]: decreased

Question: For `Cc1ccc(-n2sc3ccccc3c2=O)cc1` [PBIT], which EC50 (GCT cell lines) is on record?
Answer: The EC50 was ≤ 50 µM.

Question: And the “apoptosis induction in JAR” value (CC (JAR))?
Answer: Its value is “negligible”.

Question: And the “apoptosis induction in GCT72” value (YST (GCT72))?
Answer: The value was “negligible”.

Question: What about the “apoptosis induction in fibroblast control cells” value (fibroblast control cells) of the same compound?
Answer: The value was “only a weak apoptosis induction”.

Question: And the “cell cycle phase accumulation in GCT cells” value (GCT cells)?
Answer: Its value is “accumulated in the G0/G1 phase”.

Source: paper PMC8742467, “Therapeutical interference with the epigenetic landscape of germ cell tumors: a comparative drug study and new mechanistical insights” (Clinical Epigenetics, 2022)
